Assay results: patent US20150051269A1, “Drug Delivery Conjugate Capable of Controlled Release, and Use Thereof” (POSTECH ACADEMY-INDUSTRY FOUNDATION, priority 2012, published 2015)

Columns and labels:
[1] = Size of drug delivery conjugates in aqueous solution (Zetasizer Nano S); format: physicochemical; conditions: diameter in aqueous solution
Experimental: (§1) To measure the sizes and surface charges of the drug delivery conjugates prepared by the method of Example 1, the surface charges and sizes of the drug delivery conjugates in an aqueous solution were measured using a surface charge measurement system (Zetasizer Nano Z) and a size measurement system (Zetasizer Nano S).

[2] = Surface charge in aqueous solution (Zetasizer Nano Z); format: physicochemical
Experimental: as §1

Size (d, nm) [1]: 806.4 ± 235.9 nm | Zeta potential (mV) [2]: −39.2 ± 1.50 mV
SMILES: CC(=O)O[C@H]1C(=O)[C@@]2(C)[C@H]([C@H](OC(=O)c3ccccc3)[C@]3(O)C[C@H](OC(=O)[C@H](O)[C@@H](NC(=O)c4ccccc4)c4ccccc4)C(C)=C1C3(C)C)[C@]1(OC(C)=O)CO[C@@H]1C[C@@H]2O [PTX, paclitaxel]
